Data as given in patent US6677357B2, “Rapamycin 29-enols” (Wyeth, priority 2001, dated 2004).
≈ marks a conversion by molar mass, not a printed value.

Experiments:
Format in all cases: cell-based
3T3 (ovarian) = experiment: Antineoplastic activity, tumor cell growth inhibition (sulforhodamine B), 3T3; conditions: 48 hours; for Antineoplastic Activity (IC50): 3T3 cells; for IC50: Mus musculus, NIH3T3, 3T3 cells
Description: (§1) Antineoplastic activity for the compounds of this invention was confirmed by evaluating the antineoplastic activity of representative compounds of this invention (Examples 1-5) against six tumor cell lines in vitro. Briefly, tumor cells from six cell lines were placed in wells of a 96 well microtiter plate. The following tumor cell lines were used: 3T3 (ovarian), 3T3/H2N (ovarian—resistant to cis-platin), A431 (vulva epidermoid origin), SW620 (colon), SKBR3 (breast), and MDA-435 (breast). The tumors cells were grown in the presence of serial dilutions of the compound to be evaluated for 48 hours, and cell growth determined using a calorimetric procedure (sulforhrodamine B). The inhibition of growth was calculated compared to the number of cells at the time of test compound addition.

[1] = system: 3T3/H2N (ovarian—resistant to cis-platin); experiment: Antineoplastic activity, tumor cell growth inhibition (sulforhodamine B), 3T3/H2N; conditions: 3T3/H2N cells, 48 hours
Description: as §1

[2] = system: A431 (vulva epidermoid origin); experiment: Antineoplastic activity, tumor cell growth inhibition (sulforhodamine B), A431; conditions: 48 hours; for Antineoplastic Activity (IC50): A431 cells; for IC50: Homo sapiens, A-431, A431 cells
Description: as §1

SKBR3 (breast) = experiment: Antineoplastic activity, tumor cell growth inhibition (sulforhodamine B), SKBR3; conditions: 48 hours; for Antineoplastic Activity (IC50): SKBR3 cells; for IC50: Homo sapiens, SK-BR-3, SKBR3 cells
Description: as §1

MDA-435 (breast) = experiment: Antineoplastic activity, tumor cell growth inhibition (sulforhodamine B), MDA-435; conditions: MDA435 cells, 48 hours
Description: as §1

SW620 (colon) = experiment: Antineoplastic activity, tumor cell growth inhibition (sulforhodamine B), SW620; conditions: 48 hours; for Antineoplastic Activity (IC50): SW620 cells; for IC50: Homo sapiens, SW-620, SW620 cells
Description: as §1

SH-SY5Y cells = experiment: Neurite outgrowth (neuroregeneration) test procedure in SH-SY5Y cells; conditions: SH-SY5Y cells pretreated with aphidicolin 5 days, mean ± SEM
Description: The neuroregeneration activity for the compounds of this invention was confirmed in a standard pharmacological test procedure by evaluating rapamycin dialdehyde (Example 1) and rapamycin 29-enol (Example 2), as representative compounds of this invention, against SH-SY5Y cells in vitro [Gold et al., Exp Neurol 147:269-278, 1997]. Briefly, SH-SY5Y cells were placed in 6-well plate treated with aphidicolin for 5 days followed by the test compounds using 6-well plates. For controls, wells were untreated, or treated with nerve growth factor (NGF) alone. Test wells were treated with NGF plus Example 1 and Example 2, or rapamycin. Cells were photographed at 168 hours. Analysis of neuritic lengths was performed on photographic prints using a Houston Instrument HI-PAD digitizing tablet connected to an IBM XT computer with appropriate software (Bioquant IV, R&M Biometrics, Nashville, Tenn.). Mean values for axonal areas were compared using by ANOVA (STATVIEW, Abacus Concepts, Inc., Berkeley, Calif.). The following table summarizes the results that were obtained.

Row | Antineoplastic Activity (IC50) [2] [µg/mL] | Antineoplastic Activity (IC50) (SKBR3 (breast)) [µg/mL] | Antineoplastic Activity (IC50) (MDA-435 (breast)) [µg/mL] | Antineoplastic Activity (IC50) (SW620 (colon)) [µg/mL] | Compound | Antineoplastic Activity (IC50) (3T3 (ovarian)) [µg/mL] | Antineoplastic Activity (IC50) [1] [µg/mL] | Mean Neurite Length after 168 h (SH-SY5Y cells; test compound + NGF) | other results
1 | >5 | 2.69 | >5 | >5 | 42-O-(2-Hydroxy)ethyl rapamycin 29-enol [V] | >5 | 4.96 | – | –
2 | 2.64 | 0.36 | 1.1 | 3.04 | 42-O-(2-Hydroxy)ethyl rapamycin dialdehyde [IV] | 1.5 | 0.72 | – | –
3 | – | – | – | – | CO[C@@H]1[C@H](O)C2(C)OOC1([C@H](C)C[C@H](C)/C=C/C=O)O2 (stereo partly drawn) [III, (2E,4S,6R)-6-[(5S,6R)-5-Hydroxy-6-methoxy-4-methyl-2,3,7-trioxabicyclo[2.2.1]hept-1-yl]-4-methylhept-2-enal] | – | – | – | IC50 (3T3 (ovarian)): 4.11 µg/mL (≈ 14.4 µM); IC50 [1]: > 5 µg/mL; IC50 [2]: 3.01 µg/mL (≈ 10.5 µM); IC50 (SKBR3 (breast)): 2.05 µg/mL (≈ 7.16 µM); IC50 (MDA-435 (breast)): 4.13 µg/mL (≈ 14.4 µM); IC50 (SW620 (colon)): > 5 µg/mL
4 | – | – | – | – | CO[C@@H](C[C@@H]1CC[C@@H](C)[C@](O)(C(=O)C(=O)N2CCCC[C@H]2C(=O)O[C@@H](CC(=O)[C@H](C)/C=C(\C)[C@@H](O)[C@@H](OC)C(=O)[C@H](C)C[C@H](C)/C=C/C=O)[C@H](C)CC2CC[C@@H](O)[C@H](OC)C2)O1)/C(C)=C/C=O (stereo partly shown) [Example I, Rapamycin Dialdehyde] | – | – | 229.8 ± 9.5 (n = 141) μm | IC50 (3T3 (ovarian)): 0.72 µg/mL (≈ 0.761 µM); IC50 [1]: 0.68 µg/mL (≈ 0.719 µM); IC50 [2]: 0.91 µg/mL (≈ 0.962 µM); IC50 (SKBR3 (breast)): 0.52 µg/mL (≈ 0.55 µM); IC50 (MDA-435 (breast)): 1.23 µg/mL (≈ 1.3 µM); IC50 (SW620 (colon)): 1.41 µg/mL (≈ 1.49 µM)
5 | >5 | >5 | >5 | >5 | Rapamycin 29-enol [Example II] | >5 | >5 | 239.7 ± 10.0 (n = 155) μm | –
6 | – | – | – | – | NGF: nerve growth factor (NGF), used alone as control and together with test compounds | – | – | – | Mean Neurite Length after 168 h (SH-SY5Y cells; NGF alone): 196.5 ± 7.7 (n = 112) μm
7 | – | – | – | – | CO[C@H]1C[C@@H]2CC[C@@H](C)[C@@](O)(O2)C(=O)C(=O)N2CCCC[C@H]2C(=O)O[C@H]([C@H](C)C[C@@H]2CC[C@@H](O)[C@H](OC)C2)CC(=O)[C@H](C)/C=C(\C)[C@@H](O)[C@@H](OC)C(=O)[C@H](C)C[C@H](C)/C=C/C=C/C=C/1C [Rapamycin] | – | – | 261.4 ± 13.1 (n = 119) μm | –
